# Experimental data taken from BindingDB's records for doi:10.1021/acs.jmedchem.7b00315 (St. John'S University, 2018).
# pIC50: −log10 of the molar value.
# Experiment: Inhibition of GP2b/3a in human platelet-rich plasma assessed as reduction in collagen-induced platelet aggregation preincubated for 1 min followed by collagen addition by aggregometric analysis
row,pIC50,Compound
1,5.51,CCOC(=O)CC1CCN(C(=O)C(C)(C)[C@H](CC)NC(=O)c2ccc(C(=N)N3CCSC3)cc2F)CC1
2,7.66,"CCOC(=O)CC1CCN(C(=O)C(C)(C)[C@@H](CC)NC(=O)c2ccc(C(=N)N3CCSC3)cc2F)CC1 [(1-{3-[2-Fluoro-4-(imino-thiazolidin-3-yl-methyl)-benzoylamino]-2,2-dimethyl-pentanoyl}-piperidin-4-yl)-acetic acid ethyl ester(NSL-96184)]"
3,7.30,CCOC(=O)CC1CCN(C(=O)CC(CC)NC(=O)c2ccc(C(=N)N3CCSC3)cc2F)CC1 (stereo not drawn)
